Data published in PMC6321145 (Molecules, 2018).

What was measured:
[1] = system: SH-SY5Y cells; test: Cellular ROS detection (DCFH-DA) in SH-SY5Y cells treated with t-BuOOH; type: cell-based, human; conditions: compound 2.5 μM; 0.1 mM t-BuOOH; compared with Trolox
Procedure: To further investigate their antioxidant activity in SH-SY5Y cells, cellular ROS detection assay based on dichlorofluorescein diacetate (DCFH-DA) was performed. with Trolox and N-acetyl-L-cysteine (NAC) as reference compounds.
SH-SY5Y cells were maintained in Dulbecco’s modified Eagle’s medium (DEME) and supplemented with 1 mM glutamine, 10% fetal calf serum, 100 U/mL penicillin, and 100 μg/mL streptomycin. The cultures were maintained at 37 °C in a humidified incubator containing 5% CO2 and were passaged twice weekly.
The antioxidant activity of the compounds in SH-SY5Y cells were tested with the fluorescent probe (2′,7′-dichlorofluorescein diacetate, DCFH-DA) as reported with some variation. SH-SY5Y cells were sub-cultured in 96-well plates at a seeding density of 1 × 10^4 cells per well for 24 h, then the medium was removed, the tested compounds (2.5 μM) was added and incubated for another 24 h at 37 °C. After that, the cells were washed with PBS and incubated with 5 μM DCFH-DA in PBS at 37 °C in 5% CO2 for 30 min. Then DCFH-DA was removed, the cells were washed three times and incubated with 0.1 mM t-BuOOH in PBS for 30 min. After the incubation, the cell fluorescence from each well was measured at 485 nm excitation and 535 nm emission with a monochromator based multimode microplate reader ([…] M1000).

[2] = molecular target: T1, Aβ1–42 (Homo sapiens, UniProt P05067); test: Inhibition of self-induced Aβ1–42 aggregation (ThT fluorescence assay); type: biochemical
T1 construct: Aβ1–42 (Sigma, St. Louis, MO, USA; counterion, NaOH) stock solution was prepared by dissolving Aβ1–42 peptide in ammonium hydroxide; purchased Sigma
T1 sequence (P05067 672-713): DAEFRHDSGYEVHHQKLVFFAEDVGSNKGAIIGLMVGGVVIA
Procedure: The formation and aggregation of Aβ1–42 in the brain leads to neurotoxicity in AD. In order to evaluate the activity of our new synthetic compounds to inhibit Aβ1–42 self-induced aggregation, the thioflavin (ThT) fluorescence assay was performed.
All ThT experiments were performed according to our previously published methods. Aβ1–42 (Sigma, St. Louis, MO, USA; counterion, NaOH) stock solution was prepared by dissolving Aβ1–42 peptide in ammonium hydroxide (1% v/v), and diluting with 20 mM phosphate buffer (pH 7.4) to 100 μM. The tested compounds were firstly dissolved in DMSO at a concentration of 10 mM, and then diluted with 20 mM phosphate buffer (pH 7.4) to 40 μM.
For the inhibition of self-induced Aβ1–42 aggregation. Aβ1–42 peptide (2 μL, 50 μM, final concentration) with the tested compound (2 μL, 20 μM, final concentration) or 20 mM phosphate buffer (2 μL) was incubated in 20 mM phosphate buffer (pH 7.4) at 37 °C for 72 h. After incubation, the samples were diluted to a final volume of 36 μL with 50 mM glycine-NaOH buffer (pH 8.5) containing 5 μM Thioflavin T. Fluorescence signal was measured (excitation wavelength 450 nm, emission wavelength 485 nm, and slit widths set to 5 nm) on a monochromator-based multimode microplate reader ([…] M1000, TECAN, Hombrechtikon, Switzerland), adapted for 384-well microtiter plates. […] Each compound was examined in triplicate.

[3] = Oxygen radical absorbance capacity with fluorescein (ORAC-FL) assay
Procedure: Oxidative stress is another crucial event in AD pathogenesis. In order to determine antioxidant activities of our synthetic compounds, the oxygen radical absorbance capacity method with fluorescein (ORAC-FL) assay was performed. with Trolox (6-hydroxy-2,5,7,8-tetramethylchroman-2-carboxylic acid) as the standard, and their antioxidant activity was expressed as Trolox equivalents.
The antioxidant activities of the compounds in vitro were determined by the oxygen radical absorbance capacity fluorescein (ORAC-FL) assay. The tested compounds and (±)-6-hydroxy-2,5,7,8-tetramethylchroman-2-carboxylic acid (Trolox) were dissolved in DMSO at a concentration of 10 mM, and then diluted with 75 mM potassium phosphate buffer (pH 7.4) to 50 μM and 10 μM for use. The fluorescein (FL) stock solution (3.4 mM) was diluted with the same buffer to 136 nM. All the assays were conducted with 75 mM potassium phosphate bufffer (pH 7.4), and the final reaction mixture was 200 μL.
The mixture of compounds (or buffer) (20 μL) and fluorescein (FL, 120 μL) were incubated for 15 min at 37 °C in a black 96-well plate. Then 2,2′-azobis-(amidino-propane)-dihydrochloride (AAPH) solution (60 μL, 40 mM) was rapidly added to the reaction mixture. The fluorescence was recorded every 5 min for 240 min at 485 nm (excitation wavelength) and 535 nm (emission wavelength) (Varioskan Flash Multimode Reader, Thermo Scientific, Waltham, MA, USA), and each sample was prepared and measured for three times independently. […] The net AUC for a sample was calculated using the expression net AUC = AUCsample − AUCblank, The ORAC-FL value of each sample was calculated using the equation of net AUCsample/(AUCTrolox – AUCblank), which was expressed as Trolox equivalents.

[4] = Cytotoxicity on SH-SY5Y cells (MTT); type: cell-based, human; conditions: human, SH-SY5Y neuroblastoma cells; MTT, 24 h; mean ± SEM of three measurements
Procedure: The cytotoxicity of our synthesized compounds was examined in human neuroblastoma SH-SY5Y cells. The cell viability was determined by using methyl thiazolyl tetrazolium (MTT) colorimetry, the cells were treated with different concentrations of compounds (0–100 μM). The result is shown in the Supplementary Materials (Table S1).
The cytotoxicities of the compounds were evaluated using the MTT assay. SH-SY5Y cells were subcultured in 96-well plates at a seeding density of 1 × 10^4 cells per well. After 24 h, the medium was removed and treated with different concentrations of tested compounds for 24 h at 37 °C. The survival of cells was determined with MTT assay. Then 80 μL of medium and 20 μL of MTT (0.5 mg/mL, final concentration) were added to each well and incubated for another 4 h. After the removal of MTT, the formazan crystals were dissolved in DMSO. The amount of formazan was measured using a microculture plate reader at the wavelength of 570 nm. Each concentration was performed in triplicate.

[5] = inhibitor 20 μM, Aβ1–42 50 μM, ThT, 37 °C, 72 h, mean ± SD

| SMILES | Antioxidant activity in SH-SY5Y cells (ROS generation, DCFH-DA fluorescence) [1] | inhibition at 20 µM [2, 5] [%] | melting point [°C] | ORAC ([3]; compound 1 μM) | ORAC ([3]; compound 5 μM) | IC50 at 24 h [4] [µM] | Aβ1–42 Aggregation Inhibition (%) [2, 5] [%] | IC50 ([2]; ThT fluorescence method, mean ± SD of three experiments, read-out: IC50 against self-induced Aβ1–42 aggregation) [µM] |
| --- | --- | --- | --- | --- | --- | --- | --- | --- |
| Cc1c(C)c2c(c(C)c1O)CCC(C)(C(=O)O)O2 (stereo not drawn) [Trolox, 6-hydroxy-2,5,7,8-tetramethylchroman-2-carboxylic acid, reference compound] | decrease the intensity of fluorescence |  |  |  |  |  |  |  |
| CCN(CC)c1ccc(/C=C/c2cc(NCC(C)C)c3ccccc3n2)cc1 [Compound 6e1, (E)-2-(4-(Diethylamino)styryl)-N-isobutylquinolin-4-amine] |  | 77.9 ± 1.3 | 170.2 to 171.7 | 1.71 ± 0.05 μmol of Trolox equivalents/μmol of tested compounds | 1.92 ± 0.11 μmol of Trolox equivalents/μmol of tested compounds | 143.6 ± 0.7 |  |  |
| COc1cc(/C=C/C(=O)CC(=O)/C=C/c2ccc(O)c(OC)c2)ccc1O [Cur, curcumin, reference compound] |  |  |  |  |  |  | 49.3 ± 1.2 |  |
| CN(C)CCCNc1cc(/C=C/c2c[nH]c3ccccc23)nc2ccccc12 [Compound 6b3, (E)-N^1-(2-(2-(1H-Indol-3-yl)vinyl)quinolin-4-yl)-N^3,N^3-dimethylpropane-1,3-diamine] | a little weaker antioxidant activity than Trolox | 87.2 ± 2.1 | 168.2 to 169.5 | 3.96 ± 0.08 μmol of Trolox equivalents/μmol of tested compounds | 4.21 ± 0.08 μmol of Trolox equivalents/μmol of tested compounds | 168.1 ± 0.2 |  |  |
| CC(=O)N[C@@H](CS)C(=O)O [NAC, N-acetyl-L-cysteine, reference compound] | didn’t remove ROS generation |  |  |  |  |  |  |  |
| CCCCNc1cc(/C=C/c2ccc(N(CC)CC)cc2)nc2ccccc12 [Compound 6d1, (E)-N-Butyl-2-(4-(diethylamino)styryl)quinolin-4-amine] |  | 80.5 ± 1.4 | 172.5 to 173.8 | 1.38 ± 0.02 μmol of Trolox equivalents/μmol of tested compounds | 1.56 ± 0.05 μmol of Trolox equivalents/μmol of tested compounds | 119.3 ± 0.7 |  |  |
| CCN(CC)c1ccc(/C=C/c2cc(NCCN(C)C)c3ccccc3n2)cc1 [Compound 6c1, (E)-N^1-(2-(4-(Diethylamino)styryl)quinolin-4-yl)-N^2,N^2-dimethylethane-1,2-diamine] |  | 85.1 ± 1.4 | 145.2 to 147.1 | 2.79 ± 0.04 μmol of Trolox equivalents/μmol of tested compounds | 3.24 ± 0.10 μmol of Trolox equivalents/μmol of tested compounds | 154.3 ± 0.5 |  |  |
| CN(C)c1ccc(/C=C/c2cc(N3CCCCC3)c3ccccc3n2)cc1 [Compound 4b2, reference compound] |  | 81.2 ± 0.8 |  | 2.91 ± 0.11 μmol of Trolox equivalents/μmol of tested compounds | 3.12 ± 0.10 μmol of Trolox equivalents/μmol of tested compounds |  |  |  |
| CCN(CC)CCCNc1cc(/C=C/c2ccc(N(C)C)cc2)nc2ccccc12 [Compound 6a2, (E)-N^1-(2-(4-(Dimethylamino)styryl)quinolin-4-yl)-N^3,N^3-diethylpropane-1,3-diamine] |  | 88.5 ± 1.5 | 168.5 to 170.1 | 5.74 ± 0.09 μmol of Trolox equivalents/μmol of tested compounds |  | 187.5 ± 0.2 |  |  |
| CCN(CC)c1ccc(/C=C/c2cc(N3CCCCC3)c3ccccc3n2)cc1 [Compound 4b1, reference compound] |  | 83.5 ± 1.4 |  | 3.70 ± 0.11 μmol of Trolox equivalents/μmol of tested compounds | 3.91 ± 0.11 μmol of Trolox equivalents/μmol of tested compounds |  |  |  |
| CN(C)CCCNc1cc(/C=C/c2ccc(N(C)C)cc2)nc2ccccc12 [Compound 6b2, (E)-N^1-(2-(4-(Dimethylamino)styryl)quinolin-4-yl)-N^3,N^3-dimethylpropane-1,3-diamine] |  | 92.1 ± 1.3 | 151.2 to 153.3 | 5.61 ± 0.09 μmol of Trolox equivalents/μmol of tested compounds | 5.88 ± 0.01 μmol of Trolox equivalents/μmol of tested compounds | 228 |  | 6.1 ± 0.8 |
| CC(C)CNc1cc(/C=C/c2ccc(N(C)C)cc2)nc2ccccc12 [Compound 6e2, (E)-2-(4-(Dimethylamino)styryl)-N-isobutylquinolin-4-amine] |  | 77.5 ± 1.5 | 171.8 to 173.2 | 1.68 ± 0.06 μmol of Trolox equivalents/μmol of tested compounds | 1.78 ± 0.05 μmol of Trolox equivalents/μmol of tested compounds | 141.9 ± 0.5 |  |  |
| CCCCNc1cc(/C=C/c2ccc(N(C)C)cc2)nc2ccccc12 [Compound 6d2, (E)-N-Butyl-2-(4-(dimethylamino)styryl)quinolin-4-amine] |  | 79.2 ± 2.3 | 165.3 to 167.1 | 0.75 ± 0.06 μmol of Trolox equivalents/μmol of tested compounds | 0.95 ± 0.09 μmol of Trolox equivalents/μmol of tested compounds | 112.4 ± 0.6 |  |  |
| CCN(CC)CCCNc1cc(/C=C/c2c[nH]c3ccccc23)nc2ccccc12 [Compound 6a3, (E)-N^1-(2-(2-(1H-Indol-3-yl)vinyl)quinolin-4-yl)-N^3,N^3-diethylpropane-1,3-diamine] |  | 84.3 ± 2.1 | 194.3 to 195.1 | 1.26 ± 0.06 μmol of Trolox equivalents/μmol of tested compounds | 1.73 ±0.07 μmol of Trolox equivalents/μmol of tested compounds | 147.8 ± 0.3 |  |  |
| CN(C)CCNc1cc(/C=C/c2ccc(N(C)C)cc2)nc2ccccc12 [Compound 6c2, (E)-N^1-(2-(4-(Dimethylamino)styryl)quinolin-4-yl)-N^2,N^2-dimethylethane-1,2-diamine] |  | 83.9 ± 2.4 | 148.9 to 149.6 | 3.28 ± 0.09 μmol of Trolox equivalents/μmol of tested compounds | 3.53 ± 0.07 μmol of Trolox equivalents/μmol of tested compounds | 127.5 ± 0.4 |  |  |
